Experimental data from patent US8124390B2, “Aromatic prenyltransferases, nucleic acids encoding same and uses therefor” (The Salk Institute for Biological Studies, priority 2005, dated 2012).

How the values were obtained:
[1] = system: antibacterial; conditions: Schutz, Phytochemistry 40:1273-1277 (1995); cited from earlier work
[2] = system: Orf2; assay: Detection of prenyltransferase activity of ORF2, TLC with UV 254 nm, incl. Mg2+ dependence; type: biochemical, Streptomyces sp. strain CL190; conditions: for reaction products of prenyl acceptor with ORF2: additional studies of Example 5; for prenylated products with ORF2: 5 mM DHN2, 5 mM GPP; for prenyltransferase activity of ORF2: 5 mM prenyl acceptor, 5 mM MgCl2, 4 hrs room temperature
[3] = system: Orf2; assay: Promiscuous activity of ORF2 with flavonoids and other compounds, [14C]GPP TLC; type: biochemical, Streptomyces sp. strain CL190; conditions: for Orf2 prenyltransferase activity in the presence of flavonoids, isoflavonoids and related compounds: GPP as prenyl donor, FIG. 2B; for function as substrates for Orf2 (converted into prenylated derivatives): purified recombinant Orf2 incubated with prenyl donor and prenyl acceptor, FIGS. 2A and 2B
Method: FIG. 2B illustrates the promiscuous activity of Orf2. Several assays were conducted, employing a variety of potential substrates, i.e., 1,3-DHN (1), 1,6-DHN (2), 2,7-DHN (3), 4-HPP (4) and several isoflavonoids and polyketide derivatives, including daidzein (7,4′-dihydroxyisoflavonone, 5), formononetin (7-hydroxy, 4′-methoxyisoflavonone, 6), fisetin (3,3′,4′,7-tetrahydroxyflavone, 7), genistein (5,7,4′-trihydroxyisoflavone, 8), naringenin (5,7,4′-trihydroxyflavonone, 9), flaviolin (10), olivetol (11), olivetolic acid (12), and resveratrol (3,4′,5-trihydroxystilbene, 13). The chemical structures of four reaction products (i.e., 1,6-dihydroxy 2-geranyl naphthalene (14), 1,6-dihydroxy 5-geranyl naphthalene (15), 6-geranyl naringenin (16) and 7-O-geranyl naringenin (17)) were determined by both MS and ^1H NMR analyses. The reaction buffer consisted of 50 mM HEPES (pH 7.5), 5 mM MgCl2, and 0.1 mM GPP, 0.009 mM [^14C]GPP, and 0.1 mM of each substrate, in a final volume of 20 μl. The reaction was initiated by adding 30 μg of Orf2 to the assay mixture. After incubation at 25° C. for 6 hours, the mixture was dried, and spotted on a silica gel TLC plate. The TLC plate was developed with a chloroform/methanol (15:1) solvent mixture. Reaction products were detected with a [^14C] imaging plate (Fuji Photo Film).
The reaction buffer employed contained 50 mM HEPES (pH 7.5), 5 mM DTT (as needed), 5 mM MgCl2, 0.1 mM of each prenyl acceptor, 0.1 mM GPP, and 0.01 mM [^14C]GPP in a final volume of 20 μl. The reaction was initiated by adding 20 μg of ORF2 protein to the assay mixture. After incubation at room temperature for 4 hrs., the reaction mixture was dried using SpeedVac and the dried residue was spotted on a silica gel TLC plate. The plate was developed with chloroform:methanol (15-30:1). Reaction products were detected with a phosphoimager. The compounds tested were daidzein, fisetin, formononetin, genistein, naringenin, 4-HPP and DHN2.

[4] = system: HypSc; assay: Detection of prenyltransferase activity of HypSc (TLC); type: biochemical, Streptomyces coelicolor A3(2); conditions: for reaction products of prenyl acceptor with hypSc: assay of Example 5 repeated with hypSc
Method: FIG. 7 relates to the functional evaluation of HypSc. Thus, HypSc prenyltransferase activity was assayed as described above with respect to FIG. 2A, using 1,6-DHN as a prenyl acceptor (in each of lanes 1-4), with no prenyl acceptor in lane 1, DMAPP in lanes 2 and 3, and GPP in lane 4. No Mg^2+ was used in lane 2. The samples were incubated overnight at room temperature.
In order to validate this model, HypSc was subcloned from genomic DNA, and over-expressed in E. coli as an octa-histidine tagged protein and purified for Ni^2+-chelation chromatography. The purified enzyme was then assayed for prenyltransferase activity using DMAPP and GPP as prenyl donors.
The assay described in Example 5 was repeated with hypSc and (a) 1,6-DHN (2), (b) 2,7-DHN (3), (c) daidzein ([…], 5), (d) genistein (5,7,4′-trihydroxyisoflavone, 8), (e) naringenin (5,7,4′-trihydroxyflavonone, 9), (f) olivetol (12), and (g) resveratrol (3,4′,5-trihydroxystilbene, 13).

| SMILES | reaction products of prenyl acceptor with ORF2 [2] | Orf2 prenyltransferase activity in the presence of flavonoids, isoflavonoids and related compounds [3] | reaction products of prenyl acceptor with hypSc [4] | function as substrates for Orf2 (converted into prenylated derivatives) [3] | also measured |
| --- | --- | --- | --- | --- | --- |
| CC(C)=CCC/C(C)=C/Cc1c(O)cc2c(c1O)C(=O)C[C@@H](c1ccc(O)cc1)O2 [6-geranyl naringenin] |  |  |  |  | antibacterial activity [1]: significant antibacterial activity |
| O=c1c(-c2ccc(O)cc2)coc2cc(O)cc(O)c12 [genistein, 5,7,4′-trihydroxyisoflavone] | 7-O-geranyl-genistein | showed prenyltransferase activity | no reaction products detected |  |  |
| CC(C)=CCC/C(C)=C/COP(=O)(O)OP(=O)(O)O [GPP, geranyl diphosphate] |  |  |  |  | relative activity of Orf2 with prenyl donor ([2]; purified recombinant Orf2, prenyl donor DMAPP (C5), GPP (C10) or FPP (C15) with aromatic acceptors): highest relative activity |
| Oc1ccc2c(O)cccc2c1 [1,6-DHN, 1,6-dihydroxynaphthalene] | 5-geranyl-1,6-DHN and 2-geranyl-1,6-DHN |  | 5-dimethylallyl-1,6-DHN | function as substrates | prenylated products with ORF2 ([2]; absence of magnesium): no prenylated products were observed; prenylated products with ORF2 ([2]; presence of magnesium (5 mM MgCl2)): prenylated products were readily observed; prenyltransferase activity of ORF2 ([2]; either prenyl donor FPP or GPP): prenyltransferase activity was observed; prenylated products detected by thin layer chromatography ([2]; Orf2 incubated with 1,6-DHN and GPP): readily detected; prenyltransferase activity of HypSc ([4]; DMAPP as prenyl donor, absence of Mg2+): Notable prenyltransferase activity was detected |
| O=C(O)C(=O)Cc1ccc(O)cc1 [4-HPP, 4-hydroxyphenylpyruvate] |  |  |  | converted by Orf2 into a prenylated derivative |  |
| N[C@@H](Cc1ccccc1)C(=O)O [phenylalanine] |  |  |  | did not serve as substrates |  |
| CCCCCc1cc(O)cc(O)c1 [olivetol] | 2-geranyl-olivetol and 4-geranyl-olivetol | active | 2-dimethylallyl-olivetol and 4-dimethylallyl-olivetol |  |  |
| CCCCCc1cc(O)cc(O)c1C(=O)O [olivetolic acid] |  | active |  |  |  |
| O=C1C(O)=CC(=O)c2c(O)cc(O)cc21 [flaviolin, 2,5,7-trihydroxy-1,4-naphthoquinone] |  |  |  | function as substrates |  |
| O=c1c(O)c(-c2ccc(O)c(O)c2)oc2cc(O)ccc12 [fisetin, 3,3′,4′,7-tetrahydroxyflavone] |  | little or no activity |  |  |  |
| N[C@@H](Cc1ccc(O)cc1)C(=O)O [tyrosine] |  |  |  | did not serve as substrates |  |
| Oc1ccc(C=Cc2cc(O)cc(O)c2)cc1 [resveratrol, 3,4′,5-trihydroxystilbene] | 4-geranyl-resveratrol | showed prenyltransferase activity | 4-dimethylallyl-resveratrol |  |  |
| Oc1ccc2ccc(O)cc2c1 [2,7-DHN] | 1-geranyl-2,7-DHN and 1,6-digeranyl-2,7-DHN |  | 1-dimethylallyl-2,7-DHN | function as substrates | prenyltransferase activity of ORF2 ([2]; prenyl donor GPP): prenyltransferase activity was observed |
| Oc1cc(O)c2ccccc2c1 [1,3-DHN, 1,3-dihydroxynaphthalene] |  |  |  | function as substrates | prenyltransferase activity of ORF2 ([2]; either prenyl donor FPP or GPP): prenyltransferase activity was observed |
